Measured values from article PMC10866072, “Design, synthesis, molecular modelling and biological evaluation of novel 6-amino-5-cyano-2-thiopyrimidine derivatives as potent anticancer agents against leukemia and apoptotic inducers” (Journal of Enzyme Inhibition and Medicinal Chemistry, 2024).

Key:
SW-620 = type: cell-based; conditions: Homo sapiens, one dose 10^-5 M, 48 h
[1] = test system: full NCI 60 cell lines panel
HL-60(TB) = type: cell-based; conditions: Homo sapiens, one dose 10^-5 M, 48 h
MCF7 = type: cell-based; conditions: Homo sapiens, one dose 10^-5 M, 48 h, read-out: % growth
LOX IMVI = type: cell-based; conditions: Homo sapiens, one dose 10^-5 M, 48 h, read-out: % growth
SF-539 = type: cell-based; conditions: Homo sapiens, one dose 10^-5 M, 48 h
OVCAR-5 = type: cell-based; conditions: Homo sapiens, one dose 10^-5 M, 48 h
OVCAR-4 = type: cell-based; conditions: Homo sapiens, one dose 10^-5 M, 48 h
SN12C = type: cell-based, human; conditions: Homo sapiens, one dose 10^-5 M, 48 h
A549/ATCC = type: cell-based; conditions: Homo sapiens, one dose 10^-5 M, 48 h
SK-OV-3 = type: cell-based; conditions: Homo sapiens, one dose 10^-5 M, 48 h
U251 = type: cell-based; conditions: Homo sapiens, U-251, one dose 10^-5 M, 48 h
TK-10 = type: cell-based; conditions: Homo sapiens, one dose 10^-5 M, 48 h
MDA-MB-468 = type: cell-based; conditions: Homo sapiens, one dose 10^-5 M, 48 h
DU-145 = type: cell-based; conditions: Homo sapiens, one dose 10^-5 M, 48 h
HT29 = type: cell-based; conditions: Homo sapiens, HT-29, one dose 10^-5 M, 48 h
SF-295 = type: cell-based; conditions: Homo sapiens, one dose 10^-5 M, 48 h
UO-31 = type: cell-based; conditions: Homo sapiens, UO-31, 48 h, one dose 10^-5 M, 48 h
HCT-15 = type: cell-based; conditions: Homo sapiens, one dose 10^-5 M, 48 h, read-out: % growth
786-0 = type: cell-based; conditions: Homo sapiens, one dose 10^-5 M, 48 h
SK-MEL-5 = type: cell-based; conditions: Homo sapiens, one dose 10^-5 M, 48 h, read-out: % growth
M14 = type: cell-based; conditions: Homo sapiens, one dose 10^-5 M, 48 h
ACHN = type: cell-based; conditions: Homo sapiens, one dose 10^-5 M, 48 h
KM12 = type: cell-based; conditions: Homo sapiens, one dose 10^-5 M, 48 h
HOP-92 = type: cell-based; conditions: one dose 10^-5 M, 48 h
MOLT-4 = type: cell-based; conditions: Homo sapiens, one dose 10^-5 M, 48 h, read-out: % growth
NCI-H23 = type: cell-based; conditions: Homo sapiens, one dose 10^-5 M, 48 h, read-out: % growth
HOP-62 = type: cell-based; conditions: Homo sapiens, one dose 10^-5 M, 48 h
RXF 393 = type: cell-based; conditions: Homo sapiens, RXF 393, 48 h, one dose 10^-5 M, 48 h, read-out: % growth
SNB-19 = type: cell-based; conditions: Homo sapiens, one dose 10^-5 M, 48 h, read-out: % growth
SK-MEL-28 = type: cell-based; conditions: Homo sapiens, one dose 10^-5 M, 48 h
RPMI-8226 = type: cell-based; conditions: Homo sapiens, one dose 10^-5 M, 48 h
MDA-MB-231/ATCC = type: cell-based; conditions: Homo sapiens, one dose 10^-5 M, 48 h
EKVX = type: cell-based; conditions: Homo sapiens, one dose 10^-5 M, 48 h
SR = type: cell-based; conditions: Homo sapiens, one dose 10^-5 M, 48 h
MDA-MB-435 = type: cell-based; conditions: Homo sapiens, one dose 10^-5 M, 48 h, read-out: % growth
UACC-257 = type: cell-based; conditions: Homo sapiens, one dose 10^-5 M, 48 h
HCT-116 = type: cell-based; conditions: Homo sapiens, one dose 10^-5 M, 48 h, read-out: % growth
OVCAR-3 = type: cell-based; conditions: Homo sapiens, one dose 10^-5 M, 48 h
T-47D = type: cell-based; conditions: Homo sapiens, T47D, one dose 10^-5 M, 48 h, read-out: % growth
SF-268 = type: cell-based; conditions: Homo sapiens, one dose 10^-5 M, 48 h, read-out: % growth
NCI-H522 = type: cell-based; conditions: Homo sapiens, one dose 10^-5 M, 48 h
OVCAR-8 = type: cell-based; conditions: Homo sapiens, one dose 10^-5 M, 48 h
SK-MEL-2 = type: cell-based; conditions: Homo sapiens, one dose 10^-5 M, 48 h
PC-3 = type: cell-based; conditions: Homo sapiens, one dose 10^-5 M, 48 h
UACC-62 = type: cell-based; conditions: Homo sapiens, one dose 10^-5 M, 48 h
NCI-H460 = type: cell-based; conditions: Homo sapiens, one dose 10^-5 M, 48 h, read-out: % growth
CAKI-1 = type: cell-based; conditions: Homo sapiens, CAKI-1, 48 h, one dose 10^-5 M, 48 h
SNB-75 = type: cell-based; conditions: one dose 10^-5 M, 48 h
HS 578T = type: cell-based; conditions: one dose 10^-5 M, 48 h, HS 578T
K-562 = type: cell-based; conditions: Homo sapiens, K562, one dose 10^-5 M, 48 h
NCI-H226 = type: cell-based; conditions: one dose 10^-5 M, 48 h
MALME-3M = type: cell-based; conditions: Homo sapiens, one dose 10^-5 M, 48 h
A498 = type: cell-based; conditions: Homo sapiens, one dose 10^-5 M, 48 h
CCRF-CEM = type: cell-based; conditions: Homo sapiens, one dose 10^-5 M, 48 h
IGROV1 = type: cell-based; conditions: Homo sapiens, IGROV-1, one dose 10^-5 M, 48 h, read-out: % growth
HCC-2998 = type: cell-based; conditions: Homo sapiens, one dose 10^-5 M, 48 h

In the case of `N=C(NN=Cc1ccccc1)c1c(N)nc(S)nc1-c1ccc(Cl)cc1` [Compound 4g, 4-amino-6–(4-chlorophenyl)-2-mercapto-N'-[phenylmethylene]pyrimidine-5-carboximido hydrazide], the % growth at 10 µM (SW-620) is reported as 76.3%, the activity at 10 µM ([1]; Homo sapiens, 60 cell, 48 h, read-out: Mean % growth) is reported as 50.8% and the “% growth values, cell lines with lethal effect” value ([1]; one dose, range over those cell lines) is reported as −0.44%to-34.30. It also gave a % growth at 10 µM (HL-60(TB)) of 97%, an activity at 10 µM (MCF7) of 42.2% and an activity at 10 µM (LOX IMVI) of 22.6%. For the same molecule, the % growth at 10 µM (SF-539) was 11.4%, the percent cell growth at 10 µM (OVCAR-5) was 80.1% and the % growth at 10 µM (OVCAR-4) was 37.5%. It also gave a % growth at 10 µM (SN12C) of 73.9%, a % growth at 10 µM (A549/ATCC) of 31.6% and a % growth at 10 µM (SK-OV-3) of 81%. The % growth at 10 µM (U251) was 13.2%, the % cell growth at 10 µM (TK-10) was 93.9% and the percent cell growth at 10 µM (MDA-MB-468) was 49.7%. It also gave a % growth at 10 µM (DU-145) of 48.7%, a % growth at 10 µM (HT29) of 78.5% and a % cell growth at 10 µM (SF-295) of 35.6%. For the same molecule, the % cell growth at 10 µM (UO-31) was 29.4%, the activity at 10 µM (HCT-15) was 53.1% and the % growth at 10 µM (786-0) was 41.7%. For the same molecule, the activity at 10 µM (SK-MEL-5) was 84.9%, the % growth at 10 µM (M14) was 70.6% and the % growth at 10 µM (ACHN) was 23.3%. The % growth at 10 µM (KM12) was 62.3%, the % growth at 10 µM (HOP-92; Homo sapiens) was -0.44% and the “% growth” value (HOP-92) was -0.44%. It also gave an activity at 10 µM (MOLT-4) of 58.5%, an activity at 10 µM (NCI-H23) of 64.3% and a % growth at 10 µM (HOP-62) of 30.2%. For the same molecule, the activity at 10 µM (RXF 393) was 8.96%, the activity at 10 µM (SNB-19) was 59.8% and the % cell growth at 10 µM (SK-MEL-28) was 88.5%. It also gave a % growth at 10 µM (RPMI-8226) of 51.4%, a % growth at 10 µM (MDA-MB-231/ATCC) of 1.22% and a % cell growth at 10 µM (EKVX) of 52.9%. The percent cell growth at 10 µM (SR) was 46.4%, the activity at 10 µM (MDA-MB-435) was 77.3% and the percent cell growth at 10 µM (UACC-257) was 92.8%. For the same molecule, the activity at 10 µM (HCT-116) was 30.6%, the % growth at 10 µM (OVCAR-3) was 77.7% and the activity at 10 µM (T-47D) was 49.4%. The activity at 10 µM (SF-268) was 49.3%, the % growth at 10 µM (NCI-H522) was 56.4% and the % growth of cells at 10 µM (OVCAR-8) was 20.4%. The % growth at 10 µM (SK-MEL-2) was 92.7%, the percent cell growth at 10 µM (PC-3) was 52.6% and the % growth at 10 µM (UACC-62) was 78.1%. The activity at 10 µM (NCI-H460) was 16.5%, the % growth at 10 µM (CAKI-1) was 31.2% and the % growth at 10 µM (SNB-75; Homo sapiens) was -34.3%. The “% growth” value (SNB-75) was -34.30%, the activity at 10 µM (HS 578T; Homo sapiens, read-out: % growth) was -6.98% and the “% growth” value (HS 578T) was -6.98%. The % growth at 10 µM (K-562) was 52.4%, the % growth at 10 µM (NCI-H226; Homo sapiens) was -0.68% and the “% growth” value (NCI-H226) was -0.68%. For the same molecule, the % growth at 10 µM (MALME-3M) was 52.1%, the % growth at 10 µM (A498) was 105% and the % cell growth at 10 µM (CCRF-CEM) was 65%. The activity at 10 µM (IGROV1) was 62.6% and the % growth at 10 µM (HCC-2998) was 93.1%.
